In assay [1] the test system is HeLa (cervical cancer). The assay can be described thus: MTT in vitro cytotoxicity assay, HeLa. The class given is cell-based, human. Particulars: Homo sapiens. Here is the method: (§1) The synthesized compounds were evaluated for in-vitro cytotoxic activity against various cell lines such as HeLa (cervical cancer), MCF-7 (breast cancer), HL-60 (Human promyelocytic leukemia), HepG2 (Hepatocellular carcinoma) and MCF 12A (normal epithelial cell) by the MTT assay method. […] The relationship between surviving fraction and drug concentration was plotted to obtain the survival curve of all the cancer cell lines HeLa, MCF-7, HL-60 and HepG2. The response parameter calculated was the IC50 values, which responds to the concentration required for 50% inhibition of cell viability. The in-vitro cytotoxic activity of the synthesized compounds is summarized Table 3.
(§2) The target compounds were subjected to in vitro cytotoxicity bioassay. In vitro cytotoxicity was determined using a standard MTT assay with protocol appropriate for the individual test system[29]–[31]. The four human cancer cell lines HeLa, MCF-7, HL-60, HepG2 and MCF-12A were cultured in the MEM medium supplemented with 10% FBS, 1% glutamine and […] gentamicin sulfate in a CO2 incubator in a humidified atmosphere of 5% CO2 and 95% air. The test compounds were prepared prior to the experiment by dissolving in 0.1% DMSO and diluted with medium. The cells were then exposed to different concentrations of drugs ([…]) in the volume of […]. Cells in the control wells received the same volume of medium containing 0.1% DMSO. After 24 h, the medium was removed and cell cultures were incubated with […] MTT reagent (1 mg/ml) for 5 h at 37 °C. The known number of cells ([…]) was incubated in a 5% CO2 incubator at 37 °C in the presence of different concentrations of test compounds. After 48 h of drug incubation, the MTT solution was added in each well and absorbance was recorded at 540 nm by an ELISA reader. The experiment was performed in triplicate. Cell survival was calculated as the percentage of MTT inhibition as % growth inhibition = 100 − (mean OD of individual test Group/Mean OD of each Control Group) × 100.

Assay [2] has as its system HL-60 (Human promyelocytic leukemia). The assay can be described thus: MTT in vitro cytotoxicity assay, HL-60. Conditions: Homo sapiens. The class given is cell-based. Here is the method: as §1, §2
For assay [3], the system named is MCF 12A (normal epithelial breast cell line). The assay can be described thus: MTT assay on normal cells, MCF 12A. The class given is cell-based, human. Conditions: normal epithelial breast cell MCF 12A. As to the method: as §1
The presence of non-halogen substituent along with electron donating substituent seriously jeopardise the anticancer potential. […] To determine the selectivity of these molecules between normal and cancerous cells, the designed compounds were also tested against MCF 12A, a normal epithelial breast cell.
as §2
For orientation: Tetrazolium dyes change colour on reduction, which living cells bring about.

The target of assay [4] is T1, EGFR-TK (Homo sapiens, UniProt P00533).
T1 construct: 0.2 mg/mL Poly (Glu, Tyr) substrate, 10 mM ATP and EGFR
T1 sequence (P00533 25-1210): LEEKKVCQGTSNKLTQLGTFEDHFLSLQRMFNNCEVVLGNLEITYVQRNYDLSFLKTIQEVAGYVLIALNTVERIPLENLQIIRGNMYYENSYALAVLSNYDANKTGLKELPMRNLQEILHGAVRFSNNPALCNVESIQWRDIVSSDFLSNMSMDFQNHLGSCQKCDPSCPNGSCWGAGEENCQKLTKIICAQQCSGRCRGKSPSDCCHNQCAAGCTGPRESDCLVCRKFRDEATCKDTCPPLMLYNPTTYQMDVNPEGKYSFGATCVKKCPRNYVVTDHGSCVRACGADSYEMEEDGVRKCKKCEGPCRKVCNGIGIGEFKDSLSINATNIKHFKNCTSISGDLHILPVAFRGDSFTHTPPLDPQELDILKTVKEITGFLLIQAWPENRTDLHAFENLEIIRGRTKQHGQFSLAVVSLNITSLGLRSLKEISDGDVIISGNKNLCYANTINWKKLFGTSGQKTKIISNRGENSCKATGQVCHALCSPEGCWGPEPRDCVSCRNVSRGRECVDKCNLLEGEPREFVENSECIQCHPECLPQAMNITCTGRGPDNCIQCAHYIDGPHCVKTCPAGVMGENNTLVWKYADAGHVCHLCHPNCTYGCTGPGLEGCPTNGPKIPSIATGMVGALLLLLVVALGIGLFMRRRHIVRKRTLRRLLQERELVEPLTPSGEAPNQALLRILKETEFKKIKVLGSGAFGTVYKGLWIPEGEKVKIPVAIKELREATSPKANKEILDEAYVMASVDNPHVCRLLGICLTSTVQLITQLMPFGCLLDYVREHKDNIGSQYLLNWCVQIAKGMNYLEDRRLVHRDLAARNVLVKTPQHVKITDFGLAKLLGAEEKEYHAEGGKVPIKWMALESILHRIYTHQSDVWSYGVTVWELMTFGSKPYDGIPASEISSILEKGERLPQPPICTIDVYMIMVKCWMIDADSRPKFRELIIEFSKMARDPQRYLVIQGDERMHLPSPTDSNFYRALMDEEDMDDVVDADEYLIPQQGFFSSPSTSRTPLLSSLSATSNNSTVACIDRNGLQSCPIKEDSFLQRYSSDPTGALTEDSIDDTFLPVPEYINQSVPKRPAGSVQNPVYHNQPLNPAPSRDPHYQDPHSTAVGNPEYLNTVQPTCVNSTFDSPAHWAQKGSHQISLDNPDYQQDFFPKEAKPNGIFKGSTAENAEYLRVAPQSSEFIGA
The assay can be described thus: EGFR tyrosine kinase inhibitory activity (Kinase-Glo Plus luminescence). The class given is biochemical. Conditions: at 10 µM; read-out: Percent of Inhibition, EGFR tyrosine kinase. Here is the method:
Kinase activity was determined using Kinase-Glo Plus luminescence kinase assay kit, by quantitating the amount of ATP remaining in the solution of kinase reaction. The luminescent signal is correlated with the residual amount present and it was inversely related with kinase activity. The tested compounds were diluted to 100 mM in 10% DMSO, then […] of the dilution was added to a 50 mL reaction. All of the enzymatic reactions were performed at 30 °C for 40 min, 50 mL of reaction mixture contains 10 mM MgCl2, 40 mM Tris, pH 7.4, 0.1 mg/mL BSA, 0.2 mg/mL Poly (Glu, Tyr) substrate, 10 mM ATP and EGFR. Incubate the plate for 5 min at r.t. then add 50 mL of Kinase-GloPlus Luminescence kinase assay to each reaction. ADP-Glo assay kit is the protein kinase assays used to determine IC50 values in which ADP generation was measured as it leads to an increase in luminescence signal. The reaction mixture was incubated in a 96-well plate at 30 °C for 30 min, after the incubation period add 25 mL of ADP-Glo reagent to terminate the assay. Shake the 96-well plate for 30 min at ambient temperature then incubate it, then add 50 mL of kinase detection reagent. Read the 96-well plate using the ADP-Glo Luminescence reader. All the assay components were added to the blank control except the substrate. By removing the blank control value you can obtain the corrected activity for each protein kinase target.

In assay [5] the test system is p-EGFR and p-Akt levels of MCF-7. Briefly: Western blot of EGFR activation and downstream signalling in MCF-7. The class given is cell-based, human. Particulars: immunoblotting, concentration-dependent. The source says:
However, despite of excellent inhibitory activity of 7l against the EGFR-TK, its mechanism behind this phenomena has not been elucidate till now, thus, in this part of the study, we are interested in exploring the effect of compound 7l on the activation and downstream signalling pathway of the EGFR. Towards this, the effect of 7l has been determined on the expression of p-EGFR and EGFR, p-Akt and Akt levels of MCF-7 by immunoblotting experiments. Results as presented in Fig. 14 confirmed the effect of 7l on the expression of p-EGFR and p-Akt. […] Results clearly indicate the ability of 7l to inhibit the phosphorylation of EGFR which in turn decreases Akt (the downstream target protein of p-EGFR).
After incubation with the test compound, the cells were harvested and washed with PBS, and then lysed in lysis buffer. After centrifugation at 12,000 × g for 5 min, the supernatant was collected as total protein. The concentration of the protein was determined by a protein assay kit. The protein samples were separated by 10% SDS–PAGE and subsequently electro-transferred onto a PVDF (Millipore, Bedford, MA, USA). […] The antibodies were purchased from Cell Signaling Technology (MA, USA) Thus, the expression of p-EGFR, EGFR, p-Akt (pS473) and Akt were visualized by enhanced chemiluminescence (ECL) (Thermofischer Scientific Inc. USA) kit and band intensity was analyzed by image j software.

As to `CCOC(=O)C1=C(C)N(c2nc(Nc3cccc(F)c3)nc(Nc3cccc(F)c3)n2)C(=S)NC1c1ccc(F)cc1` (stereo not drawn) [7l, Ethyl 1-(4,6-bis((3-fluorophenyl)amino)-1,3,5-triazin-2-yl)-4-(4-fluorophenyl)-6-methyl-2-thioxo-1,2,3,4-tetrahydropyrimidine-5-carboxylate], the midpoint of inhibition in assay [1], the IC50, lay at 39.7 ± 0.81 µM. In addition, the IC50 – broadly, the concentration at which inhibition is half-maximal – in assay [2] is 23.1 ± 0.36 µM. In addition, the “IC50 MCF 12A” value in assay [3] is “non-toxic”. In addition, the inhibition (commonly the share of the control response that was lost under treatment) at 10 µM in assay [4] was found to be 96.4%. Further, in assay [5], the “Level of p-Akt” value is listed as “significantly reduced” and the “Level of p-EGFR” value is on record as “significantly reduced”.
